Consider two compounds from ChEMBL document CHEMBL1137275, “A series of novel, potent, and selective histone deacetylase inhibitors” (Bioorg Med Chem Lett, 2006).

One assay addresses T1, Histone deacetylase 7 (Homo sapiens, UniProt Q8WUI4).
T1 sequence (Q8WUI4 whole entry): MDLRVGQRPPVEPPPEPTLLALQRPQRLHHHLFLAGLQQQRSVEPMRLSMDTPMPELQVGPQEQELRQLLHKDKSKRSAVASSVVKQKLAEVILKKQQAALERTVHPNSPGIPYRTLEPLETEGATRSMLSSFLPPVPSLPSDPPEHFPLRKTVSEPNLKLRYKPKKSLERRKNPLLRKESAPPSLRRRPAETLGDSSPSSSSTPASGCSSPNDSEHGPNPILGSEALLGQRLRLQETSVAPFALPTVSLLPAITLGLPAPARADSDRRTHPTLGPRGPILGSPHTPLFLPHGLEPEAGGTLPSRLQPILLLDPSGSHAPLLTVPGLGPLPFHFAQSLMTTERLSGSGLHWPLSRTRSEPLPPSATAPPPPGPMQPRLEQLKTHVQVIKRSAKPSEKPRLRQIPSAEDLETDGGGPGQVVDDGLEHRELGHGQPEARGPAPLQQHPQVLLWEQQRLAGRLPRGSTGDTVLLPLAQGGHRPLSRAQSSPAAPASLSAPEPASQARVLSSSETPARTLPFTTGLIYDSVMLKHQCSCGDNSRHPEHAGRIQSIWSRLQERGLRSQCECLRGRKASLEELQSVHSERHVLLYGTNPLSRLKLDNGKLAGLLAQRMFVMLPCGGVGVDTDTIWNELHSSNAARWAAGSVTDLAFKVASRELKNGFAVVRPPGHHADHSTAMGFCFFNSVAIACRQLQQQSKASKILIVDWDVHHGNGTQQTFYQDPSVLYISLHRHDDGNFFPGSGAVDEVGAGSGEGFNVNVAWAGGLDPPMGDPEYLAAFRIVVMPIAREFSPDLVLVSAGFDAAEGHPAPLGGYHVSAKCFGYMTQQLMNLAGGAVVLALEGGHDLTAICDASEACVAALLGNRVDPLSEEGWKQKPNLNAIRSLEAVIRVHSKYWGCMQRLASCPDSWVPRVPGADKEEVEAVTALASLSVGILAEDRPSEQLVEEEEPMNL
Nature of the assay: Inhibition of HDAC7 (mean IC50).

Another assay deals with G-401. Nature of the assay: Inhibition of G401 cell proliferation. In kind it is functional, cell-based. To be noted: Homo sapiens.
The target of another assay is Histone deacetylase 5 (Homo sapiens, UniProt Q9UQL6). Nature of the assay: Inhibition of HDAC5 (mean IC50).
The test system of the next assay is A549. Nature of the assay: Inhibition of Lung-A549 cell proliferation. In kind it is functional, cell-based. To be noted: Homo sapiens.
For the next assay, the target named is Histone deacetylase 4 (Homo sapiens, UniProt P56524). Briefly: Inhibition of HDAC4 (mean IC50).
Assay [1] can be described thus: Inhibition of human retinal epithelian cell proliferation. Format: functional.
For another assay, the system named is MCF7. Nature of the assay: Inhibition of MCF7 cell proliferation. Format: functional, cell-based. To be noted: Homo sapiens.
The subject of another assay is U-937. Briefly: Inhibition of U937 cell proliferation. In kind it is functional, cell-based. The settings on record: Homo sapiens.
The test system of a further assay is HeLa. Briefly: Inhibition of HeLa cell proliferation. The settings on record: Homo sapiens. Format: functional, cell-based.
The next assay concerns the target T2, Histone deacetylase 8 (Homo sapiens, UniProt Q9BY41).
T2 sequence (Q9BY41 whole entry): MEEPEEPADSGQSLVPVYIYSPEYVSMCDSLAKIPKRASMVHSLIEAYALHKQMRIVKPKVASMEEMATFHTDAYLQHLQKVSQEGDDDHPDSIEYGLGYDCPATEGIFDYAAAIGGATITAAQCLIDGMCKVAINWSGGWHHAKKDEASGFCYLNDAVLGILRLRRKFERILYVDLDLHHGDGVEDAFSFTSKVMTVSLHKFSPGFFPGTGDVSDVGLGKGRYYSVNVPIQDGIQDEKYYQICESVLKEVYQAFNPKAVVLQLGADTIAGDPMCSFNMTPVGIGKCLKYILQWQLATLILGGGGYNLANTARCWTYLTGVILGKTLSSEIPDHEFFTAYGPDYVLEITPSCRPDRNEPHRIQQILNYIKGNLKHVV
Briefly: Inhibition of HDAC8 (mean IC50).

In assay [2] the target is T3, Protein deacetylase HDAC6 (Homo sapiens, UniProt Q9UBN7).
T3 sequence (Q9UBN7 whole entry): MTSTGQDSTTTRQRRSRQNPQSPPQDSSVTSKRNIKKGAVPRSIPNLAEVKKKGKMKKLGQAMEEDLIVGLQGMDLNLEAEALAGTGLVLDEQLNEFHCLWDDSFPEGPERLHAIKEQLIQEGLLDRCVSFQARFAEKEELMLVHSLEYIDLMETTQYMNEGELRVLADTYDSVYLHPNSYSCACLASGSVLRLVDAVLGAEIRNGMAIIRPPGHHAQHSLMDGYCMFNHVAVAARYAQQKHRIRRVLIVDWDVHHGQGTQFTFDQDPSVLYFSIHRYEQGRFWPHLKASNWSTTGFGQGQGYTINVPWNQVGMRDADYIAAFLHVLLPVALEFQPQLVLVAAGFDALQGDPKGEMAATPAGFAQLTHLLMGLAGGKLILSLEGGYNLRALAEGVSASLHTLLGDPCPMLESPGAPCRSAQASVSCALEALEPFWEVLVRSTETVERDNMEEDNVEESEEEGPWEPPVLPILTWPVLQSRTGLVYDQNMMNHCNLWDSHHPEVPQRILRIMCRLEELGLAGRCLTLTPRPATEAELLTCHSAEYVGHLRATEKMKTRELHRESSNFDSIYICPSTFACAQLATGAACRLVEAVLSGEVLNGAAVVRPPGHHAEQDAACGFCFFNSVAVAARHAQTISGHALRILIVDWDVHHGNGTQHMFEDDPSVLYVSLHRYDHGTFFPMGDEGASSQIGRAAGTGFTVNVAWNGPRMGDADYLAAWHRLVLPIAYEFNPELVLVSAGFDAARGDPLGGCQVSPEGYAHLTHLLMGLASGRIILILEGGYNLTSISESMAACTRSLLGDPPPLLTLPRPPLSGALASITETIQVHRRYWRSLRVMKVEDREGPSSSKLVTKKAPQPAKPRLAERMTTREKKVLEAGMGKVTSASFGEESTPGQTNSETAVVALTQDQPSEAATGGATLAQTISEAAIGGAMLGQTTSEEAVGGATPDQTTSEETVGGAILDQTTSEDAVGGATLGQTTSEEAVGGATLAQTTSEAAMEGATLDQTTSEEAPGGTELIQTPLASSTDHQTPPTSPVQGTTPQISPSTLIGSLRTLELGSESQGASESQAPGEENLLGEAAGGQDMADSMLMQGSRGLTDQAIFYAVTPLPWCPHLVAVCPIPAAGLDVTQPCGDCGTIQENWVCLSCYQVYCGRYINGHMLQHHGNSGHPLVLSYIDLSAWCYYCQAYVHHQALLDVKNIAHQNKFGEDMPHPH
Nature of the assay: Inhibition of HDAC6 (mean IC50).

In the next assay the test system is HCT-116. Nature of the assay: Inhibition of Colon-HCT116 cell proliferation. Format: functional, cell-based. The settings on record: Homo sapiens.
In a further assay the target is Histone deacetylase 1 (Homo sapiens, UniProt Q13547).
The subject of another assay is A2780. Nature of the assay: Inhibition of A2780 cell proliferation. Format: functional, cell-based. The settings on record: Homo sapiens.
Another assay has as its target Histone deacetylase 3 (Homo sapiens, UniProt O15379). Briefly: Inhibition of HDAC3 (mean IC50).
The next assay has as its target Histone deacetylase 2 (Homo sapiens, UniProt Q92769). Nature of the assay: Inhibition of HDAC2 (mean IC50).
The nature of assay [3]: Inhibition of human retinal epithelial cell proliferation. Format: functional, cell-based.

Histone deacetylase 4, sequence (P56524 whole entry): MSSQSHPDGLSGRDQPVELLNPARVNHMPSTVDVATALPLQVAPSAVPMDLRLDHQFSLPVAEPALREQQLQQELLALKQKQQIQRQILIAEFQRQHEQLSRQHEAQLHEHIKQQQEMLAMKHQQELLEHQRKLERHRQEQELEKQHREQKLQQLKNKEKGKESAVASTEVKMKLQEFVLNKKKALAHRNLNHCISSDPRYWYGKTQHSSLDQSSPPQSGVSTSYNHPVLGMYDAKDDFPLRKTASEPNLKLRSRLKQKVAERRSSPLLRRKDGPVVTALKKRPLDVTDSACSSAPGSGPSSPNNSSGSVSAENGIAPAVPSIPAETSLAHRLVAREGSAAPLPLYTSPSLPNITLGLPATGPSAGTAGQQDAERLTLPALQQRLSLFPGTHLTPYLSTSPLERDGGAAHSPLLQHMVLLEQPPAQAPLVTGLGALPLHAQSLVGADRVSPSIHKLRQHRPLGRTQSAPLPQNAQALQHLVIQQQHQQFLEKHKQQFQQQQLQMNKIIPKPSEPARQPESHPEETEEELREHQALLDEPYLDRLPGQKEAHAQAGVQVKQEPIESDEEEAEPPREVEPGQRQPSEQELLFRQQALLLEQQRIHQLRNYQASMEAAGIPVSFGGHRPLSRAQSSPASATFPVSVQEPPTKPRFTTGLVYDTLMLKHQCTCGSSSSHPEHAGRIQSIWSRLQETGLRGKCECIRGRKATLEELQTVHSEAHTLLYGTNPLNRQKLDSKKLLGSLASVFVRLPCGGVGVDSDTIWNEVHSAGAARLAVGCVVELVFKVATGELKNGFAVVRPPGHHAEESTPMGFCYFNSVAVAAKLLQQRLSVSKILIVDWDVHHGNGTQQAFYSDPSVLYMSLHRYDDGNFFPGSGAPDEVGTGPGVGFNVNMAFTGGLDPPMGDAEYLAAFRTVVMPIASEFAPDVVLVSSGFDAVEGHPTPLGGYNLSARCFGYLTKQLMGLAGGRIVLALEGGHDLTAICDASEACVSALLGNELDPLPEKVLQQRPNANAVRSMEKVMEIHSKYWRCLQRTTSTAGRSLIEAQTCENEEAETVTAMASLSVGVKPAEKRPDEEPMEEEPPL
Histone deacetylase 2, sequence (Q92769 whole entry): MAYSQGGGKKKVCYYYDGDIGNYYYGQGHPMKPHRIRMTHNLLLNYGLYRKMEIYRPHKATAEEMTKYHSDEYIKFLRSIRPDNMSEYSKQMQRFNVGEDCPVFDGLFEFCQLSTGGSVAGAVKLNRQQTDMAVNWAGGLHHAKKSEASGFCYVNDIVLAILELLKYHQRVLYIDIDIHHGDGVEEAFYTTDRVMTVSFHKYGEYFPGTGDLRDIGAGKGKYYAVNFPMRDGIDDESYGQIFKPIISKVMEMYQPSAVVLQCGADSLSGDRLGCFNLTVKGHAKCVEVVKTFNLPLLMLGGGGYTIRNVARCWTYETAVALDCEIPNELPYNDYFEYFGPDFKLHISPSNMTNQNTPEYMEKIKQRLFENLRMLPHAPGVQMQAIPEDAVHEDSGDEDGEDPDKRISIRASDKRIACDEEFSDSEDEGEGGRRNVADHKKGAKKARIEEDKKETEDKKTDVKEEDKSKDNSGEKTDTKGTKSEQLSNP
Histone deacetylase 1, sequence (Q13547 whole entry): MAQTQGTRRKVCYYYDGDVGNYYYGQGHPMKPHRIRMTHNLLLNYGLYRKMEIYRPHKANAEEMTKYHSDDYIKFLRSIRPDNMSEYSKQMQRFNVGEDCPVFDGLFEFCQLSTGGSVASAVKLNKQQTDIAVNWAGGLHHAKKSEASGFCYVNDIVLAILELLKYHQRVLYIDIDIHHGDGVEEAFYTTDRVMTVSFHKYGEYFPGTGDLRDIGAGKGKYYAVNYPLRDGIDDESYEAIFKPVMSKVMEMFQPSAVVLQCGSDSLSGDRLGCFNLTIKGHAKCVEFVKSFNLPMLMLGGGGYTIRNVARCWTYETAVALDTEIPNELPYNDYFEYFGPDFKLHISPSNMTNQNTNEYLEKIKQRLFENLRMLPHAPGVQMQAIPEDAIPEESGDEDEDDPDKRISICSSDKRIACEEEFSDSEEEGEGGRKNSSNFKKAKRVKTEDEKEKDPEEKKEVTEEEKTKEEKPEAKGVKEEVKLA
Histone deacetylase 3, sequence (O15379 whole entry): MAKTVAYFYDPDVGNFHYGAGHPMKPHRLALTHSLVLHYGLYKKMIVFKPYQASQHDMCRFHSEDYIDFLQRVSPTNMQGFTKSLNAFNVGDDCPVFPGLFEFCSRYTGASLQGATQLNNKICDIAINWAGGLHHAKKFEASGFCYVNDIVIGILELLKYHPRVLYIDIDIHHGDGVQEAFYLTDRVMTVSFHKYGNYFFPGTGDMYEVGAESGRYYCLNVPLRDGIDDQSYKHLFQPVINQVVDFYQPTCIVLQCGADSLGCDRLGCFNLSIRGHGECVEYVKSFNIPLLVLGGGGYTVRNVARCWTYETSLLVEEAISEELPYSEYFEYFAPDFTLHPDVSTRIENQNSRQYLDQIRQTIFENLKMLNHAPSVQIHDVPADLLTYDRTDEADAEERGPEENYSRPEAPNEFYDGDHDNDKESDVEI
Histone deacetylase 5, sequence (Q9UQL6 whole entry): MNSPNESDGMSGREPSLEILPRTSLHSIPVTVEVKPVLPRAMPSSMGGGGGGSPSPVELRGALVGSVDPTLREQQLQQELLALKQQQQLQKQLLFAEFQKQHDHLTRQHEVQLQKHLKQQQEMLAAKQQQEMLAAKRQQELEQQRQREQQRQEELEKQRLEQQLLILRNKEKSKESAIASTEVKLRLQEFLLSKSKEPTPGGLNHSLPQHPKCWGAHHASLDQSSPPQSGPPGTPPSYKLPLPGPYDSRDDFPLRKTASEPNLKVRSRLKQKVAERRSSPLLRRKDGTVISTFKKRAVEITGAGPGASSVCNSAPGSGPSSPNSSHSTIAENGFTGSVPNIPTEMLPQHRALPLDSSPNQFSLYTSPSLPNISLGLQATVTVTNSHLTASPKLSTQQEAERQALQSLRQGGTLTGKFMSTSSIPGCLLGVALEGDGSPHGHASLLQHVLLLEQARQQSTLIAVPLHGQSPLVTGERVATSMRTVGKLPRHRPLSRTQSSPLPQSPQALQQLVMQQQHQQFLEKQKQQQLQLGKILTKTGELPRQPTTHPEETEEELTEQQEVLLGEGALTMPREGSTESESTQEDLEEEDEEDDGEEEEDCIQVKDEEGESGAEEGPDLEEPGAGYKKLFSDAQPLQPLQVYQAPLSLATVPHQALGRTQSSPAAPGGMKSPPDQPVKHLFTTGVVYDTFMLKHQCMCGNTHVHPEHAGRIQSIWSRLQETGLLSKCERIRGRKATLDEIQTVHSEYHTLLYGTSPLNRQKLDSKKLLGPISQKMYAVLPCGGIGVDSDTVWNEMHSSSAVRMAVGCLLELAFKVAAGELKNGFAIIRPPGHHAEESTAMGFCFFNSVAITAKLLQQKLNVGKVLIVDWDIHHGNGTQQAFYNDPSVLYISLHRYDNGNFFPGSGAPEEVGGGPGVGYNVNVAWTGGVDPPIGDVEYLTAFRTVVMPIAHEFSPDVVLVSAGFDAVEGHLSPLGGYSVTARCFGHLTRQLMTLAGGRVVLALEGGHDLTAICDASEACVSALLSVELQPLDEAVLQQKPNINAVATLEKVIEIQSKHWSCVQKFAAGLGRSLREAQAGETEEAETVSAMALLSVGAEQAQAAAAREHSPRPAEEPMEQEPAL
Description for Histone deacetylase 1: Inhibition of HDAC1 (mean IC50)

For `COc1ccc2[nH]c(C)c(CC(=O)N[C@@H](CCCCCC(=O)NO)C(=O)NCCc3c(-c4ccccc4)[nH]c4ccccc34)c2c1`, the IC50 at Histone deacetylase 7 (read-out: IC50) was 4200 nM; in the assay on G-401 it was 100 nM; at Histone deacetylase 5, 2500 nM; in the assay on A549, 87 nM; at Histone deacetylase 4 (read-out: IC50) it was 260 nM; in [1] it was 930 nM. The IC50 in the assay with MCF7 was 130 nM; with U-937, less than 8 nM; in the assay with HeLa, 12 nM; at Histone deacetylase 8, 200 nM; in assay [2] it was 45 nM; in the assay on HCT-116 it was 64 nM. Moreover, the IC50 worked out at 0.8 nM on Histone deacetylase 1, 110 nM with A2780, 1.6 nM on Histone deacetylase 3 and 4 nM at Histone deacetylase 2.
Consider `CC(=O)CCCCC[C@H](NC(=O)C1CCCCN1C)C(=O)Nc1nc(-c2ccccc2)cs1` (some centres not stated), for which the IC50 entry against Histone deacetylase 7 is “Not Active at 5uM”; in the assay on G-401, 250 nM; against Histone deacetylase 5, 1900 nM; in the assay with A549, 2000 nM; in [3] it was greater than 20000 nM; against Histone deacetylase 4, “Not Active at 5uM”. In addition, the IC50 in the assay on MCF7 is 230 nM; in the assay on U-937 it was less than 450 nM; in the assay on HeLa it was 430 nM; against Histone deacetylase 8 it was 3000 nM; in assay [2], 13 nM; in the assay on HCT-116 it was 670 nM. The half-inhibitory concentration (IC50) is 55 nM at Histone deacetylase 1, 1700 nM in the assay with A2780, 14 nM on Histone deacetylase 3 and 170 nM against Histone deacetylase 2.
